Measured values as given in patent publication US9445999B2, “Process for preparing carrier particles for dry powders for inhalation” (CHIESI FARMACEUTICI S.p.A., priority 2010, dated 2016).

Experiments:
[1] = Particle size distribution (PSD) by laser diffraction with a Malvern apparatus; assay type: physicochemical; conditions: lactose 90-150 microns + 0.5% w/w MgSt, CYCLOMIX at given speed and time; mean of three determinations
From the text: In general terms, the particle size of the particles is quantified by measuring a characteristic equivalent sphere diameter, known as volume diameter, by laser diffraction.
In the present application, the particle size interval is expressed in terms of […]. Otherwise, the particle size distribution is expressed in terms of: i) the volume median diameter (VMD) which corresponds to the diameter of 50 percent by weight or volume respectively, of the particles, e.g. d(v0.5); and ii) the volume diameter (VD) in microns of 10% and 90% of the particles, respectively, e.g. d(v0.1) and d(v0.9).
iv) the particle size distribution (PSD) by laser diffraction with a Malvern apparatus; the water contact angle by the sessile drop method wherein the powder is in the form of a disc obtained by compaction (compressed powder disc method) according to the procedure reported above in the description;
The results are expresses as mean of three determinations. In Table 2, the water contact angle values and the corresponding extent of surface coating calculated from the Cassie and Baxter equation are also reported. Said equation was applied to the experimental values of the penultimate column of Table 2 using the reference values for magnesium state alone and alpha-lactose monohydrate alone. The variability in terms of S.D. of the experimental values is always less than ±10%, typically of ±5%.

[2] = Water contact angle by sessile drop (compressed powder disc method); extent of surface coating from the Cassie and Baxter equation; assay type: physicochemical; conditions: 0.5% w/w MgSt carriers
From the text: The extent to which magnesium stearate coats the surface of the lactose particles may be determined by first measuring the water contact angle, and then applying the equation known in the literature as Cassie and Baxter, cited at page 338 of Colombo I et al., Il Farmaco, 1984, 39(10), pp. 328-341, which is incorporated herein by reference in its entirety, and reported below. cos θmixture=fMgSt cos θMgst+flactore cos θlactose where
fMgst and flactore are the surface area fractions of magnesium stearate and of lactose;
θMgSt is the water contact angle of magnesium stearate;
θlactose is the water contact angle of lactose; and
θmixture are the experimental contact angle values. […]
If a fully automated procedure is not available, the base (b) and the height (h) of the drop are measured on the display using a mobile reading scale, then the water contact angles (WCA) are calculated by applying the following formula: WCA=[arctg2h/b]×2×180/[…]
Typically the values are calculated as a mean of three different measurements taken at room temperature. […]
The results are expresses as mean of three determinations. In Table 2, the water contact angle values and the corresponding extent of surface coating calculated from the Cassie and Baxter equation are also reported. […]

In the case of O.OC[C@H]1O[C@@H](O[C@H]2[C@H](O)[C@@H](O)[C@@H](O)O[C@@H]2CO)[C@H](O)[C@@H](O)[C@H]1O [α-lactose monohydrate, alpha-lactose monohydrate], the “PSD d(v0.1)” value [1] is reported as 96.4, the “PSD d(v0.5)” value [1] is reported as 132.2 and the “PSD d(v0.9)” value [1] is reported as 182.3. The “Water Contact Angle” value ([2]; compressed powder disc, sessile drop) was 8.35 E and the “Extent of Surface Coating” value ([2]; calculated from the Cassie and Baxter equation) was 0%.
